Broadly, the Km is the substrate concentration at which the rate is half of its maximum.

Drawing on publication PMC1764428, “Secretion and properties of a hybrid Kluyveromyces lactis-Aspergillus niger β-galactosidase” (Microbial Cell Factories, 2006), this text covers Km for 2 compounds.

The test system of assay [1] is T1, hybrid protein LAC4-LACA-KpnI.
T1 construct: single-chain fusion: K. lactis LAC4 without its 297 C-terminal residues (fifth domain), replaced by 274 C-terminal residues of A. niger LACA (from pVK1.1) at KpnI site; expressed in K. lactis MW190-9B; crude extract
Briefly: D-galactose release by coupled galactose dehydrogenase / NADH kit at […] nm, Lineweaver-Burk. The following applies: crude extract (60 μg protein); lactose 5-160 mM. Format: biochemical, Kluyveromyces lactis;Aspergillus niger.

Assay [2] shares this test system. Briefly: o-nitrophenol release, Lineweaver-Burk. Format: biochemical, Kluyveromyces lactis;Aspergillus niger. Particulars: crude extract (30 μg protein); buffer Z with 1.6 mM MgSO4; ONPG 2-12 mM.

For the compound `OC[C@H]1O[C@@H](O[C@H]2[C@H](O)[C@@H](O)C(O)O[C@@H]2CO)[C@H](O)[C@@H](O)[C@H]1O` (some centres unmarked) [lactose], the Km in assay [1] amounted to 8.7 mM.
In the case of `O=[N+]([O-])c1ccccc1O[C@@H]1O[C@H](CO)[C@H](O)[C@H](O)[C@H]1O` [ONPG], the Km in assay [2] was 0.8 mM.
